Test results reported in the NIST ThermoML archive (doi:10.1016/j.jct.2006.05.003).

Columns and labels:
[1] = xn = mol fraction of the nth substance listed; conditions: 101 kPa, Liquid
[2] = refractive index (Na D-line) (dimensionless); xn = mol fraction of the nth substance listed; conditions: 101 kPa, Liquid, Standard Abbe refractometry
[3] = 101 kPa, Liquid
[4] = refractive index (Na D-line) (dimensionless); conditions: 101.33 kPa, Liquid, Standard Abbe refractometry

C1COCCO1 [1,4-dioxane] + CCCCl
x1 = 1
Conditions | mass density, [1] [kg/m3] | refractive index, [2]
298.15 K | 1027.87 | 1.41995
313.15 K | 1010.69 | 1.41264

CCCCCl [1-chlorobutane] + C1COCCO1
Conditions | mass density, [1] [kg/m3] | refractive index, [2]
298.15 K, x2 = 0 | 880.69 | 1.3995
298.15 K, x2 = 0.0418 | 885.54 | 1.40011
298.15 K, x2 = 0.1141 | 894.14 | 1.40119
298.15 K, x2 = 0.2426 | 910.06 | 1.40328
298.15 K, x2 = 0.3358 | 922.21 | 1.40491
298.15 K, x2 = 0.4518 | 938.11 | 1.40709
298.15 K, x2 = 0.5509 | 952.44 | 1.40908
298.15 K, x2 = 0.5914 | 958.52 | 1.40994
298.15 K, x2 = 0.738 | 981.64 | 1.41323
298.15 K, x2 = 0.8235 | 995.99 | 1.41529
298.15 K, x2 = 0.9104 | 1011.29 | 1.41752
298.15 K, x2 = 0.987 | 1025.41 | 1.4196
313.15 K, x2 = 0 | 863.82 | 1.39133
313.15 K, x2 = 0.0344 | 867.83 | 1.39188
313.15 K, x2 = 0.117 | 877.61 | 1.39321
313.15 K, x2 = 0.2279 | 891.26 | 1.39506
313.15 K, x2 = 0.3499 | 907.15 | 1.39732
313.15 K, x2 = 0.4442 | 920.15 | 1.39917
313.15 K, x2 = 0.55 | 935.51 | 1.40138
313.15 K, x2 = 0.645 | 950.02 | 1.40351
313.15 K, x2 = 0.7456 | 966.15 | 1.40591
313.15 K, x2 = 0.8238 | 979.22 | 1.40786
313.15 K, x2 = 0.9143 | 995.01 | 1.41024
313.15 K, x2 = 0.9636 | 1003.94 | 1.41159

C1COCCO1 [1,4-dioxane] + CC(C)CCl
x1 = 1
Conditions | mass density, [1] [kg/m3] | refractive index, [2]
298.15 K | 1027.87 | 1.41995
313.15 K | 1010.69 | 1.41264

CCCCl [1-chloropropane]
Conditions | mass density, [3] [kg/m3] | refractive index, [4]
298.15 K | 884.26 | 1.3856
313.15 K | 865.14 | 1.37673

C1COCCO1 [1,4-dioxane] + CCC(C)Cl
x1 = 1
Conditions | mass density, [1] [kg/m3] | refractive index, [2]
298.15 K | 1027.87 | 1.41995
313.15 K | 1010.69 | 1.41264

CC(C)CCl [1-chloro-2-methylpropane]
Conditions | mass density, [3] [kg/m3] | refractive index, [4]
298.15 K | 871.13 | 1.39528
313.15 K | 853.51 | 1.38686

C1COCCO1 [1,4-dioxane] + CC(C)(C)Cl
x1 = 1
Conditions | mass density, [1] [kg/m3] | refractive index, [2]
298.15 K | 1027.87 | 1.41995
313.15 K | 1010.69 | 1.41264

CC(C)(C)Cl [2-chloro-2-methylpropane]
Conditions | mass density, [3] [kg/m3] | refractive index, [4]
298.15 K | 836.45 | 1.38224
313.15 K | 818.31 | 1.37314

CCCCCl [1-chlorobutane]
Conditions | mass density, [3] [kg/m3] | refractive index, [4]
298.15 K | 880.69 | 1.3995
313.15 K | 863.82 | 1.39133

CCC(C)Cl (stereo not given) [2-chlorobutane] + C1COCCO1
Conditions | mass density, [1] [kg/m3] | refractive index, [2]
298.15 K, x2 = 0 | 867.4 | 1.39404
298.15 K, x2 = 0.0417 | 872.75 | 1.3949
298.15 K, x2 = 0.1061 | 881.2 | 1.3963
298.15 K, x2 = 0.2514 | 901.2 | 1.3996
298.15 K, x2 = 0.3493 | 915.42 | 1.40193
298.15 K, x2 = 0.4771 | 934.94 | 1.40512
298.15 K, x2 = 0.5563 | 947.61 | 1.40721
298.15 K, x2 = 0.6462 | 962.58 | 1.40961
298.15 K, x2 = 0.7343 | 977.89 | 1.41208
298.15 K, x2 = 0.8244 | 994.21 | 1.41466
298.15 K, x2 = 0.9112 | 1010.56 | 1.41725
298.15 K, x2 = 0.9891 | 1025.72 | 1.41962
313.15 K, x2 = 0 | 850.13 | 1.38573
313.15 K, x2 = 0.0475 | 856.2 | 1.38674
313.15 K, x2 = 0.1318 | 867.4 | 1.38865
313.15 K, x2 = 0.239 | 882.36 | 1.3912
313.15 K, x2 = 0.3413 | 897.3 | 1.39378
313.15 K, x2 = 0.4574 | 915.03 | 1.39683
313.15 K, x2 = 0.5546 | 930.53 | 1.39949
313.15 K, x2 = 0.6429 | 945.17 | 1.40195
313.15 K, x2 = 0.7326 | 960.65 | 1.40449
313.15 K, x2 = 0.8209 | 976.52 | 1.40709
313.15 K, x2 = 0.9121 | 993.58 | 1.40985
313.15 K, x2 = 0.9525 | 1001.37 | 1.41113

CC(C)CCl [1-chloro-2-methylpropane] + C1COCCO1
Conditions | mass density, [1] [kg/m3] | refractive index, [2]
298.15 K, x2 = 0 | 871.13 | 1.39528
298.15 K, x2 = 0.045 | 876.79 | 1.39616
298.15 K, x2 = 0.1196 | 886.36 | 1.39763
298.15 K, x2 = 0.2433 | 902.87 | 1.40025
298.15 K, x2 = 0.3412 | 916.58 | 1.40243
298.15 K, x2 = 0.4407 | 931.19 | 1.40471
298.15 K, x2 = 0.5447 | 947.22 | 1.40725
298.15 K, x2 = 0.6463 | 963.67 | 1.40983
298.15 K, x2 = 0.737 | 979.04 | 1.4123
298.15 K, x2 = 0.8305 | 995.63 | 1.41492
298.15 K, x2 = 0.9157 | 1011.45 | 1.41742
298.15 K, x2 = 0.9515 | 1018.31 | 1.41849
313.15 K, x2 = 0 | 853.51 | 1.38686
313.15 K, x2 = 0.0474 | 859.42 | 1.38783
313.15 K, x2 = 0.1492 | 872.58 | 1.39001
313.15 K, x2 = 0.2654 | 888.36 | 1.39259
313.15 K, x2 = 0.3687 | 903.12 | 1.39504
313.15 K, x2 = 0.4565 | 916.21 | 1.39721
313.15 K, x2 = 0.5541 | 931.39 | 1.39973
313.15 K, x2 = 0.6426 | 945.76 | 1.40211
313.15 K, x2 = 0.7423 | 962.69 | 1.40489
313.15 K, x2 = 0.8326 | 978.76 | 1.40752
313.15 K, x2 = 0.9112 | 993.38 | 1.40987
313.15 K, x2 = 0.9606 | 1002.9 | 1.41139

C1COCCO1 [1,4-dioxane]
Conditions | mass density, [3] [kg/m3] | refractive index, [4]
298.15 K | 1027.87 | 1.41995
313.15 K | 1010.69 | 1.41264

C1COCCO1 [1,4-dioxane] + CCCCCl
x1 = 1
Conditions | mass density, [1] [kg/m3] | refractive index, [2]
298.15 K | 1027.87 | 1.41995
313.15 K | 1010.69 | 1.41264

CC(C)(C)Cl [2-chloro-2-methylpropane] + C1COCCO1
Conditions | mass density, [1] [kg/m3] | refractive index, [2]
298.15 K, x2 = 0 | 836.45 | 1.38224
298.15 K, x2 = 0.0458 | 844.01 | 1.38393
298.15 K, x2 = 0.1594 | 862.91 | 1.38814
298.15 K, x2 = 0.2576 | 879.78 | 1.39182
298.15 K, x2 = 0.3925 | 904.15 | 1.39689
298.15 K, x2 = 0.4632 | 917.47 | 1.39956
298.15 K, x2 = 0.5569 | 935.61 | 1.40312
298.15 K, x2 = 0.6611 | 956.29 | 1.40709
298.15 K, x2 = 0.7458 | 973.39 | 1.41033
298.15 K, x2 = 0.8395 | 992.69 | 1.4139
298.15 K, x2 = 0.9222 | 1010.32 | 1.41703
298.15 K, x2 = 0.9639 | 1019.57 | 1.41861
313.15 K, x2 = 0 | 818.31 | 1.37314
313.15 K, x2 = 0.0485 | 826.29 | 1.37502
313.15 K, x2 = 0.0903 | 833.3 | 1.37667
313.15 K, x2 = 0.2192 | 855.58 | 1.38175
313.15 K, x2 = 0.2827 | 866.86 | 1.38423
313.15 K, x2 = 0.3966 | 887.59 | 1.3888
313.15 K, x2 = 0.5029 | 907.54 | 1.39301
313.15 K, x2 = 0.6039 | 927.14 | 1.39702
313.15 K, x2 = 0.7025 | 946.96 | 1.40092
313.15 K, x2 = 0.8138 | 970.21 | 1.40529
313.15 K, x2 = 0.8959 | 987.89 | 1.4085
313.15 K, x2 = 0.9612 | 1002.17 | 1.41105

CCCCl [1-chloropropane] + C1COCCO1
Conditions | mass density, [1] [kg/m3] | refractive index, [2]
298.15 K, x2 = 0 | 884.26 | 1.3856
298.15 K, x2 = 0.1027 | 898.64 | 1.38919
298.15 K, x2 = 0.2077 | 913.41 | 1.39281
298.15 K, x2 = 0.3029 | 926.89 | 1.39609
298.15 K, x2 = 0.4034 | 941.19 | 1.39957
298.15 K, x2 = 0.506 | 955.87 | 1.40308
298.15 K, x2 = 0.6062 | 970.28 | 1.40651
298.15 K, x2 = 0.706 | 984.73 | 1.4099
298.15 K, x2 = 0.8081 | 999.6 | 1.41336
298.15 K, x2 = 0.9059 | 1013.96 | 1.41673
298.15 K, x2 = 0.9486 | 1020.26 | 1.41818
313.15 K, x2 = 0 | 865.14 | 1.37673
313.15 K, x2 = 0.1009 | 879.74 | 1.38047
313.15 K, x2 = 0.2026 | 894.27 | 1.38432
313.15 K, x2 = 0.3067 | 909.2 | 1.38812
313.15 K, x2 = 0.4061 | 923.53 | 1.39169
313.15 K, x2 = 0.5056 | 937.97 | 1.39523
313.15 K, x2 = 0.6044 | 952.38 | 1.39872
313.15 K, x2 = 0.7114 | 968.04 | 1.40252
313.15 K, x2 = 0.8026 | 981.42 | 1.40576
313.15 K, x2 = 0.9011 | 995.98 | 1.40922
313.15 K, x2 = 0.951 | 1003.38 | 1.41097

CCC(C)Cl (stereo not given) [2-chlorobutane]
Conditions | mass density, [3] [kg/m3] | refractive index, [4]
298.15 K | 867.4 | 1.39404
313.15 K | 850.13 | 1.38573
